Assay results taken from article PMC7884711, “Identification of efficient prokaryotic cell-penetrating peptides with applications in bacterial biotechnology” (Communications Biology, 2021).
Where no end group is shown, it is not given here.

Key:
E. coli DH5α cells [1] = test: Penetration efficiency of TAMRA-labeled CPPs, electroporation-based method, flow cytometry; assay type: cell-based, Escherichia coli; details: electrocompetent E. coli DH5α, 5 μg TAMRA-CPP, electroporation 1.8 kV; for Cell penetration efficiency (TAMRA fluorescence), Electrooration - Tris buffer: 20 mM Tris-HCl pH 7.5, 1 h; for Cell penetration efficiency (TAMRA fluorescence), Electrooration - DW: distilled water, 1 h
Description: (§1) (Fig. 2a). […] First, we prepared electrocompetent and chemically competent cells.

E. coli DH5α cells [2] = test: Penetration efficiency of TAMRA-labeled CPPs, chemical (CaCl2) treatment method, flow cytometry; assay type: cell-based, Escherichia coli; details: for Cell penetration efficiency (TAMRA fluorescence), Chemical (CaCl2) method - Tris buffer / Cell penetration efficiency (TAMRA fluorescence), Chemical (CaCl2) method - DW: 50 mM CaCl2-treated E. coli DH5α, 5 μg TAMRA-CPP; for Cell penetration efficiency (TAMRA fluorescence), Chemical (CaCl2) method - Tris buffer: 20 mM Tris-Cl pH 7.5, 1 h; for Cell penetration efficiency (TAMRA fluorescence), Chemical (CaCl2) method - DW: 5 × 10^7 cells/50 μL, distilled water, 1 h
Description: as §1

E. coli DH5α cells [3] = test: Inhibition of bacterial cell growth by CPPs (Max OD600 relative to control); assay type: cell-based, Escherichia coli; details: for Max OD (%) (Figure 3f): E. coli DH5α diluted 1/1000 in LB, 5 μg TAMRA-CPP (0.1 μg/μL), OD600 monitored 18 h, max OD of treated cells / max OD of control cells
Protocol: E. coli DH5α cells were grown until OD600 = 1 at 37 °C with shaking at 200 rpm. […] Then, cell growth (OD600) was monitored for 18 h by using the Synergy^TM H1 hybrid multi-mode microplate reader (BioTek, Vermont, USA). As a control, we used E. coli cells that were not treated with CPPs.

E. coli DH5α cells [4] = test: Penetration efficiency of TAMRA-labeled CPPs, non-treated cells (control method), flow cytometry; details: 5 μg TAMRA-labeled CPP (0.1 μg/μL), 1 h, PBS washes
Protocol: For the evaluation and optimization of the electroporation-based method, five efficient CPPs were selected from the previous reports[45],[46] […] The CPP were labeled with TAMRA to trace their penetration into the cytoplasm. First, we prepared electrocompetent and chemically competent cells[46]. As a negative control, we also prepared non-treated cells. After treating the five TAMRA-labeled CPP peptides, either distilled water or 20 mM Tris-Cl (pH = 7.5) was added as a buffer to the E. coli–CPP mixture and incubated at 37 °C for 1 h. After washing the cells, their fluorescence intensities were measured by flow cytometry to quantify CPP delivery efficiency.
Prepared cells at a density of 5 × 10^7 cells/50 μL were treated with 5 μg of TAMRA-labeled CPPs (0.1 μg/μL) and incubated for 1 h at room temperature. After incubation, the cells were washed with 1 × PBS and centrifuged at 7000 rpm for 10 min three times to remove extracellular CPPs.
Then, the cells were washed with 1 × PBS and centrifuged at 7000 rpm for 10 min three times. The fluorescence intensity of the CPPs in E. coli cells was quantitatively measured using a Guava EasyCyte flow cytometer (Millipore, Darmstadt, Germany) with an excitation wavelength of 547 nm and an emission wavelength of 580 nm.

[5] = tested on: wild-type and tetA plasmid-harboring E. coli; test: NiCl2 susceptibility, colony counts on LB agar; assay type: cell-based, Escherichia coli; details: for Number of colonies, Plasmid-harboring cells: E. coli with tetA plasmid; for Number of colonies, Plasmid-harboring cells / Number of colonies, Wild-type cells: LB agar, 37 °C 24 h; for Number of colonies, Wild-type cells: E. coli
Description: Additionally, for the counterselection of plasmid-removed cells, we inserted the tetracycline resistance gene (tetA) into the plasmid to be removed. With the plasmid, the cells can survive in tetracycline media but not in Ni^2+ media. Conversely, without the plasmid, the cells cannot survive in tetracycline media but can survive in Ni^2+ media. The tetA gene induces host cells to accumulate twice as much Ni^2+ as normal cells, so tetA-containing cells are more susceptible to NiCl2 toxicity than normal cells. To determine a suitable Ni^2+ concentration for the selection of plasmid-removed cells, wild-type E. coli cells and tetracycline-resistant cells harboring the tetA gene in the plasmid were grown on Luria–Bertani (LB) agar plates containing 1–4 mM NiCl2. As shown in Supplementary Table 1, after incubation at 37 °C for 24 h, wild-type E. coli cells were capable of growing on LB agar plates containing up to 2.2 mM NiCl2. […] Therefore, we chose 2.0 mM NiCl2 as the selection concentration (Supplementary Table 1).
(§2) To investigate the susceptibility of tetA-harboring E. coli and tetA-harboring Methylomonas sp. DH-1 to NiCl2, wild-type cells and the cells containing the tetA gene in the plasmid (E. coli) or in the genome (Methylomonas sp. DH-1) were incubated in an LB (E. coli) or NMS (Methylomonas sp. DH-1) agar plate with different concentrations of NiCl2 (0.5–8 mM). The optimal NiCl2 concentrations that were determined to counter select tetA-removed cells were 2 mM and 4 mM for E. coli and Methylomonas sp. DH-1, respectively.

[6] = tested on: wild-type and tetA-harboring Methylomonas sp. DH-1; test: NiCl2 susceptibility, colony counts on NMS agar; assay type: cell-based; details: for Number of colonies, Wild-type cells: Methylomonas sp. DH-1, NMS agar; for Number of colonies, tetA-harboring cells: Methylomonas sp. DH-1 with genomic tetA, NMS agar
Protocol: as §2

ppTG1 (GLFKALLKLLKSLWKLLLKA; also: TAMRA label, position not given here) [CPP 16]
Cell penetration efficiency (TAMRA fluorescence), Electrooration - Tris buffer (E. coli DH5α cells [1]; replicate 1): 299.308 A.U.
Cell penetration efficiency (TAMRA fluorescence), Electrooration - Tris buffer (E. coli DH5α cells [1]; replicate 2): 307.97 A.U.
Cell penetration efficiency (TAMRA fluorescence), Electrooration - Tris buffer (E. coli DH5α cells [1]; replicate 3): 322.066 A.U.
Cell penetration efficiency (TAMRA fluorescence), Electrooration - DW (E. coli DH5α cells [1]; replicate 1): 116.793 A.U.
Cell penetration efficiency (TAMRA fluorescence), Electrooration - DW (E. coli DH5α cells [1]; replicate 2): 316.678 A.U.
Cell penetration efficiency (TAMRA fluorescence), Electrooration - DW (E. coli DH5α cells [1]; replicate 3): 302.379 A.U.
Cell penetration efficiency (TAMRA fluorescence), Chemical (CaCl2) method - Tris buffer (E. coli DH5α cells [2]; replicate 1): 251.992 A.U.
Cell penetration efficiency (TAMRA fluorescence), Chemical (CaCl2) method - Tris buffer (E. coli DH5α cells [2]; replicate 2): 38.28 A.U.
Cell penetration efficiency (TAMRA fluorescence), Chemical (CaCl2) method - Tris buffer (E. coli DH5α cells [2]; replicate 3): 55.663 A.U.
Cell penetration efficiency (TAMRA fluorescence), Chemical (CaCl2) method - Tris buffer (E. coli DH5α cells [2]; replicate 4): 85.7449 A.U.
Cell penetration efficiency (TAMRA fluorescence), Chemical (CaCl2) method - Tris buffer (E. coli DH5α cells [2]; replicate 5): 220.921 A.U.
Cell penetration efficiency (TAMRA fluorescence), Chemical (CaCl2) method - DW (E. coli DH5α cells [2]; replicate 1): 201.023 A.U.
Cell penetration efficiency (TAMRA fluorescence), Chemical (CaCl2) method - DW (E. coli DH5α cells [2]; replicate 2): 237.812 A.U.
Cell penetration efficiency (TAMRA fluorescence), Chemical (CaCl2) method - DW (E. coli DH5α cells [2]; replicate 3): 176.507 A.U.
Penetration efficiency (TAMRA FI) (E. coli DH5α cells [2]; TAMRA fluorescence intensity in E. coli, library screen of 98 CPPs): 130.52
Max OD (%) (Figure 3f) (E. coli DH5α cells [3]; replicate 1): 61.1865%
Max OD (%) (Figure 3f) (E. coli DH5α cells [3]; replicate 2): 69.0965%
Max OD (%) (Figure 3f) (E. coli DH5α cells [3]; replicate 3): 63.3967%
Growth rate (%) (E. coli DH5α cells [3]; E. coli growth with CPP, relative to control): 64.5599%
Anti-bacterial activity (E. coli DH5α cells [3]; class (Cytotoxic / Safe), cutoff of 50%): Safe
Cell penetration efficiency (TAMRA fluorescence), Control (E. coli DH5α cells [4]; replicate 1): 21.8791 A.U.
Cell penetration efficiency (TAMRA fluorescence), Control (E. coli DH5α cells [4]; replicate 2): 18.0245 A.U.
Cell penetration efficiency (TAMRA fluorescence), Control (E. coli DH5α cells [4]; replicate 3): 15.0301 A.U.

[Cl][Ni][Cl] [NiCl2]
Number of colonies, Plasmid-harboring cells ([5]; NiCl2 1.8 mM): 10.67 ± 2.27
Number of colonies, Plasmid-harboring cells ([5]; NiCl2 1.9 mM): 4 ± 1.15
Number of colonies, Plasmid-harboring cells ([5]; NiCl2 2 mM): 0.34 ± 0.19
Number of colonies, Plasmid-harboring cells ([5]; NiCl2 2.1 mM): 0
Number of colonies, Plasmid-harboring cells ([5]; NiCl2 2.2 mM): 0
Number of colonies, Plasmid-harboring cells ([5]; NiCl2 2.3 mM): 0
Number of colonies, Plasmid-harboring cells ([5]; NiCl2 >2.30 mM): 0
Number of colonies, Wild-type cells ([5]; NiCl2 1.8 mM): 2492 ± 94.27
Number of colonies, Wild-type cells ([5]; NiCl2 1.9 mM): 2065.33 ± 181.07
Number of colonies, Wild-type cells ([5]; NiCl2 2 mM): 1010.67 ± 121.71
Number of colonies, Wild-type cells ([5]; NiCl2 2.1 mM): 776 ± 73.11
Number of colonies, Wild-type cells ([5]; NiCl2 2.2 mM): 29 ± 4.40
Number of colonies, Wild-type cells ([5]; NiCl2 2.3 mM): 0.67 ± 0.19
Number of colonies, Wild-type cells ([5]; NiCl2 >2.30 mM): 0
NiCl2 concentration up to which wild-type E. coli cells were capable of growing ([5]; LB agar plates, 37 °C, 24 h): 2.2 mM
Growth of tetA-harboring E. coli cells on plates containing 2.0 mM NiCl2 ([5]; LB agar plates, 37 °C, 24 h, 2.0 mM NiCl2): not able to grow
Number of colonies, Wild-type cells ([6]; NiCl2 0.5 mM): 180 ± 6.42
Number of colonies, Wild-type cells ([6]; NiCl2 1 mM): 128 ± 10.50
Number of colonies, Wild-type cells ([6]; NiCl2 2 mM): 114 ± 4.04
Number of colonies, Wild-type cells ([6]; NiCl2 4 mM): 87 ± 16.09
Number of colonies, Wild-type cells ([6]; NiCl2 8 mM): 21 ± 5.03
Number of colonies, Wild-type cells ([6]; NiCl2 >8.0 mM): 0
Number of colonies, tetA-harboring cells ([6]; NiCl2 0.5 mM): 119 ± 6.42
Number of colonies, tetA-harboring cells ([6]; NiCl2 1 mM): 125 ± 4.40
Number of colonies, tetA-harboring cells ([6]; NiCl2 2 mM): 3 ± 2.08
Number of colonies, tetA-harboring cells ([6]; NiCl2 4 mM): 0
Number of colonies, tetA-harboring cells ([6]; NiCl2 8 mM): 0
Number of colonies, tetA-harboring cells ([6]; NiCl2 >8.0 mM): 0
